Source: ChEMBL document CHEMBL4627296, “Enhanced cellular uptake efficiency of DCM probes or SN38 conjugating with phenylboronic acids” (Bioorg Med Chem, 2020)

Experiments:
[1] = Drug uptake in human A549 cells at 10 uM measured after 24 hrs by confocal laser scanning microscopic analysis; format: ADME, cell-based; settings: a549, 24 h
[2] = test system: HepG2; assay: Antiproliferative activity against human HepG2 cells assessed as inhibition of cell proliferation after 72 hrs by MTT assay; format: functional, cell-based; settings: HepG2, 72 h
[3] = Drug uptake in human HepG2 cells at 10 uM measured after 24 hrs by confocal laser scanning microscopic analysis; format: ADME, cell-based; settings: hepg2, 24 h
[4] = Drug metabolism in human HepG2 cells assessed as SN38 release at 10 uM measured after 24 hrs by microplate reader analysis; format: ADME, cell-based; settings: hepg2, 24 h
[5] = test system: HepG2; assay: Potency index, ratio of compound uptake to irinotecan uptake in human HepG2 cells at 10 uM measured after 24 hrs by microplate reader analysis; format: ADME, cell-based; settings: hepg2, 24 h
[6] = Drug uptake in human HepG2 cells at 10 uM measured after 1 hr by fluorescence analysis; format: ADME, cell-based; settings: hepg2, 1 h
[7] = Drug uptake in human HepG2 cells assessed as mean fluorescence intensity at 10 uM measured after 1 hr by flow cytometry analysis (reference value: 2.74); format: ADME, cell-based; settings: hepg2, 1 h
[8] = Solubility of the compound in water; format: physicochemical; settings: buffer

Structure (SMILES): CCc1c2c(nc3ccc(OC(=O)N4CCC(CNC(=O)c5ccc(B(O)O)cc5)CC4)cc13)-c1cc3c(c(=O)n1C2)COC(=O)[C@]3(O)CC
- Drug uptake [1]: Active
- IC50 [2]: 1590 nM
- Drug uptake [3]: Active
- Drug metabolism [4]: Metabolite_Notdetected
- Ratio [5]: 7

Structure (SMILES): CCN(CCn1cc(COCCOCCOCCOCCNC(=O)c2cc(B(O)O)cc([N+](=O)[O-])c2)nn1)c1ccc(/C=C/C2=CC(=C(C#N)C#N)c3ccccc3O2)cc1
- Drug uptake [6]: Active
- Flu intensity [7]: 11.83

Structure (SMILES): CCN(CCn1cc(COCCOCCOCCOCCNC(=O)Nc2ccc3c(c2)B(O)OC3)nn1)c1ccc(/C=C/C2=CC(=C(C#N)C#N)c3ccccc3O2)cc1
- Drug uptake [6]: Active
- Flu intensity [7]: 86.91

Structure (SMILES): CCN(CCn1cc(COCCOCCOCCOCCNC(=O)c2ccc(B(O)O)cc2)nn1)c1ccc(/C=C/C2=CC(=C(C#N)C#N)c3ccccc3O2)cc1
- Drug uptake [6]: Active
- Flu intensity [7]: 99.42

Structure (SMILES): CCc1c2c(nc3ccc(OC(=O)N4CCC(N5CCCCC5)CC4)cc13)-c1cc3c(c(=O)n1C2)COC(=O)[C@]3(O)CC
- IC50 [2]: 950 nM

Structure (SMILES): CCN(CCn1cc(COCCOCCOCCOCCNC(=O)c2cccc([N+](=O)[O-])c2)nn1)c1ccc(/C=C/C2=CC(=C(C#N)C#N)c3ccccc3O2)cc1
- solubility [8]: Soluble
- Drug uptake [6]: Active
- Flu intensity [7]: 28.12

Structure (SMILES): CCN(CCn1cc(COCCOCCOCCOCCO)nn1)c1ccc(/C=C/C2=CC(=C(C#N)C#N)c3ccccc3O2)cc1
- solubility [8]: Soluble
- Drug uptake [6]: Active
- Flu intensity [7]: 64.89

Structure (SMILES): CCc1c2c(nc3ccc(OC(=O)N4CCC(CNC(=O)Nc5ccc6c(c5)B(O)OC6)CC4)cc13)-c1cc3c(c(=O)n1C2)COC(=O)[C@]3(O)CC
- Drug uptake [1]: Active
- IC50 [2]: 840 nM
- Drug uptake [3]: Active
- Drug metabolism [4]: Metabolite_Notdetected
- Ratio [5]: 3
